Reference: patent US8871767B2, “2-arylimidazo[1,2-B]pyridazine, 2-phenylimidazo[1,2-A]pyridine, and 2-phenylimidazo[1,2-A]pyrazine derivatives” (Hengrui (USA) Ltd., priority 2010, dated 2014)
Like-named read-outs stand apart in the source and are kept apart here.

Experiments:
[1] = tested on: Hedgehog pathway activation on 10T1/2/Smo#3 cells (C3H10T1/2 cells transfected with human Smoothened receptor); assay: Hedgehog pathway activation on 10T1/2/Smo#3 cells measured by ALP activity; assay type: cell-based; conditions: Mus musculus, C3H 10T1/2, 10T1/2/Smo#3 cells
How it was run: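 C3H10T1/2 cells stably expressing human Smoothened were activated with hShh-conditioned medium (10-20%) or 500 nM SAG, with test compounds present. Pathway block read as inhibited ALP activity (4-methylumbelliferyl phosphate fluorescence); viability checked by CellTiter-Blue. IC50 values reported.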

[2] = tested on: Hedgehog pathway activation (GLi-luciferase reporter) in Shh Light II reporter cells; assay: Hedgehog pathway activation on Shh Light II reporter cells measured by luciferase activity; assay type: cell-based; conditions: Mus musculus, Shh Light II
How it was run: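 Shh Light II reporter cells carrying a hedgehog-responsive GLi-luciferase reporter were stimulated either with 500 nM SAG, a direct Smoothened agonist, or with conditioned media containing human Sonic Hedgehog (hShh). Test compounds were evaluated for blocking this pathway activation, quantified by luciferase activity. Cell viability was monitored in parallel with the Celltiter-Blue® assay.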

[3] = measured by ALP activity, read-out: ALP (IC50, inhibition of Hedgehog pathway activation)
[4] = hShh activation, read-out: Shh (IC50, inhibition of Hedgehog pathway activation)
[5] = hShh activation, ALP activity, read-out: 10T1/2/Smo#3 ALP activity (hShh Activation)
[6] = SAG activation (500 nM SAG), read-out: Shh Light II luciferase activity (SAG activation)
[7] = hShh activation, read-out: Shh Light II luciferase activity (hShh activation)

Row | SMILES | IC50 [1, 3] | IC50 [2, 4] | IC50 [1, 5] | IC50 [2, 6] | IC50 [2, 7]
1 | CCOc1nn2cc(-c3ccc(C(F)(F)F)c(NC(=O)C(C)(C)C)c3)nc2c(C)c1C [Example 201, N-(5-(6-ethoxy-7,8-dimethylimidazo[1,2-b]pyridazin-2-yl)-2-(trifluoromethyl)phenyl)pivalamide] | 869 nM | 402 nM | – | – | –
2 | Cc1ccc(-c2cn3nc(-c4cccc(OCC(=O)NO)c4C(F)(F)F)ccc3n2)cc1NC(=O)C(C)(C)C [Example 439, N-(5-(6-(3-(2-(hydroxyamino)-2-oxoethoxy)-2-(trifluoromethyl)phenyl)imidazo[1,2-b]pyridazin-2-yl)-2-methylphenyl)pivalamide] | 746 nM | 365 nM | – | – | –
3 | CNS(=O)(=O)c1cc(-c2cn3nc(-c4cccnc4C(F)(F)F)ccc3n2)ccc1Cl [Example 698, 2-chloro-N-methyl-5-(6-(2-(trifluoromethyl)pyridin-3-yl)imidazo[1,2-b]pyridazin-2-yl)benzenesulfonamide] | > 10000 nM | 4250 nM | – | – | –
4 | CNC(=O)c1cccc(-c2ccc3nc(-c4ccc(C)c(NC(=O)C(C)(C)C)c4)cn3n2)c1 [Example 453, N-methyl-3-(2-(4-methyl-3-pivalamidophenyl)imidazo[1,2-b]pyridazin-6-yl)benzamide] | 751 nM | 582 nM | – | – | –
5 | CC(C)(C)C(=O)Nc1cc(-c2cn3cc(-c4ccccc4F)ccc3n2)ccc1C(F)(F)F [Example 83, N-(5-(6-(2-fluorophenyl)imidazo[1,2-a]pyridin-2-yl)-2-(trifluoromethyl)phenyl)pivalamide] | 1350 nM | 1010 nM | 300 to 3000 nM | 300 to 3000 nM | 300 to 3000 nM
6 | CC(=O)Nc1ccccc1-c1ccc2nc(-c3ccc(C(F)(F)F)c(NC(=O)C(C)(C)C)c3)cn2n1 [Example 255, N-(5-(6-(2-acetamidophenyl)imidazo[1,2-b]pyridazin-2-yl)-2-(trifluoromethyl)phenyl)pivalamide] | 490 nM | 563 nM | – | – | –
7 | COc1ccc2nc(-c3ccc(C)c(NC(=O)c4ccccc4F)c3)cn2n1 [Example 96, 2-fluoro-N-(5-(6-methoxyimidazo[1,2-b]pyridazin-2-yl)-2-methylphenyl)benzamide] | 1090 nM | 398 nM | 300 to 3000 nM | 300 to 3000 nM | 300 to 3000 nM
8 | Cc1ccc(-c2cn3nc(N4CCS(=O)(=O)CC4)ccc3n2)cc1NC(=O)C(C)(C)C [Example 285, N-{5-[6-(1,1-dioxidothiomorpholin-4-yl)imidazo[1,2-b]pyridazin-2-yl]-2-methylphenyl}-2,2-dimethylpropanamide] | 1010 nM | 788 nM | – | – | –
9 | CCOC(=O)CCCCCOc1cccc(-c2ccc3nc(-c4ccc(C)c(NC(=O)C(C)(C)C)c4)cn3n2)c1C(F)(F)F [Example 422, ethyl 6-(3-(2-(4-methyl-3-pivalamidophenyl)imidazo[1,2-b]pyridazin-6-yl)-2-(trifluoromethyl)phenoxy)hexanoate] | 312 nM | 869 nM | – | – | –
10 | Cc1ncc(-c2cn3nc(-c4ccccc4F)ccc3n2)cc1NC(=O)C(C)(C)C [Example 390, N-(5-(6-(2-fluorophenyl)imidazo[1,2-b]pyridazin-2-yl)-2-methylpyridin-3-yl)pivalamide] | 469 nM | 270 nM | 300 to 3000 nM | 300 to 3000 nM | < 300 nM
11 | COc1ccc2nc(-c3cc(NC(=O)C4CC4)ccc3Cl)cn2n1 [Example 116, N-(4-chloro-3-(6-methoxyimidazo[1,2-b]pyridazin-2-yl)phenyl)cyclopropanecarboxamide] | > 10000 nM | 9650 nM | – | – | –
12 | CN[C@@H]1CCN(c2ccc3nc(-c4ccc(C(F)(F)F)c(NC(=O)C(C)(C)C)c4)cn3n2)C1 [Example 634, (R)—N-(5-(6-(3-(methylamino)pyrrolidin-1-yl)imidazo[1,2-b]pyridazin-2-yl)-2-(trifluoromethyl)phenyl)pivalamide] | 98 nM | 120 nM | – | – | –
13 | Cc1ccc(-c2cn3nc(-c4ccc(F)nc4F)ccc3n2)cc1NC(=O)C(C)(C)C [Example 280, N-(5-(6-(2,6-difluoropyridin-3-yl)imidazo[1,2-b]pyridazin-2-yl)-2-methylphenyl)pivalamide] | 236 nM | 475 nM | – | – | –
14 | CCc1ccc(-c2cn3nc(-c4cccnc4C(F)(F)F)ccc3n2)cc1NC(=O)C1(C)CC1 [Example 633] | – | – | < 300 nM | < 300 nM | < 300 nM
15 | CC(C)(C)C(=O)Nc1cc(-c2cn3nc(-c4cccnc4F)ccc3n2)ccc1C(F)(F)F [Example 176, N-(5-(6-(2-fluoropyridin-3-yl)imidazo[1,2-b]pyridazin-2-yl)-2-(trifluoromethyl)phenyl)pivalamide] | 97 nM | 79 nM | – | – | –
16 | Cc1ccc(-c2cn3nc(-c4ccc(C(N)=O)cc4F)ccc3n2)cc1NC(=O)C(C)(C)C [compound 541] | 181 nM | 255 nM | – | – | –
17 | CCC(CO)Nc1ccc2nc(-c3ccc(C(F)(F)F)c(NC(=O)C(C)(C)C)c3)cn2n1 (stereo not shown) [Example 303, N-(5-(6-(1-hydroxybutan-2-ylamino)imidazo[1,2-b]pyridazin-2-yl)-2-(trifluoromethyl)phenyl)pivalamide] | 783 nM | 994 nM | 300 to 3000 nM | 300 to 3000 nM | 300 to 3000 nM
18 | CSCCNc1ccc2nc(-c3ccc(C(F)(F)F)c(NC(=O)C(C)(C)C)c3)cn2n1 [Example 300, N-(5-(6-(2-(methylthio)ethylamino)imidazo[1,2-b]pyridazin-2-yl)-2-(trifluoromethyl)phenyl)pivalamide] | 703 nM | 535 nM | 300 to 3000 nM | < 300 nM | 300 to 3000 nM
19 | Cc1c(-c2ccccc2)nc2ccc(N3CCN(C(=O)Cc4ccccc4)CC3)nn12 [Example 155, 1-(4-(3-methyl-2-phenylimidazo[1,2-b]pyridazin-6-yl)piperazin-1-yl)-2-phenylethanone] | 1270 nM | 2100 nM | 300 to 3000 nM | < 300 nM | 300 to 3000 nM
20 | COc1ccc2nc(-c3cc(NC(=O)C(C)(C)C)c(C)cc3Cl)cn2n1 [Example 132, N-(4-chloro-5-(6-methoxyimidazo[1,2-b]pyridazin-2-yl)-2-methylphenyl)pivalamide] | > 10000 nM | 1490 nM | – | – | –
21 | CC(C)(C)C(=O)Nc1cc(-c2cn3nc(-c4ccc(F)cc4F)ccc3n2)ccc1C(F)(F)F [Example 183, N-(5-(6-(2,4-difluorophenyl)imidazo[1,2-b]pyridazin-2-yl)-2-(trifluoromethyl)phenyl)pivalamide] | 995 nM | 327 nM | – | – | –
22 | CC(C)(C)C(=O)Nc1cc(-c2cn3nc(Cc4ccccc4)ccc3n2)ccc1C(F)(F)F [Example 231, N-(5-(6-benzylimidazo[1,2-b]pyridazin-2-yl)-2-(trifluoromethyl)phenyl)pivalamide] | – | 905 nM | 300 to 3000 nM | 3000 to 30000 nM | 300 to 3000 nM
23 | CC(C)(C)C(=O)Nc1cc(-c2cn3nc(OCCN4CCCCC4)ccc3n2)ccc1C(F)(F)F [Example 309, N-(5-(6-(2-(piperidin-1-yl)ethoxy)imidazo[1,2-b]pyridazin-2-yl)-2-(trifluoromethyl)phenyl)pivalamide] | 973 nM | 339 nM | – | – | –
